Measurements: patent US20220372040A1, “METTL3 MODULATORS” (Accent Therapeutics, Inc., priority 2020, published 2022)

Assays:
METTL3/METTL14 = METTL3/METTL14 (Homo sapiens, UniProt Q86U44); test: METTL3-14 standard enzyme assay (3H-SAM flashplate scintillation); assay type: biochemical; details: METTL3/METTL14 2.5 nM, RNA 100 nM, 3H-SAM 100 nM, 30 min
In short: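 METTL3/METTL14 (2.5 nM final) preincubated 5 min with compound in 20 mM HEPES pH 7.5, 50 mM KCl, 250 μM MgCl2, 1 mM DTT, ambient temperature; started with 100 nM 3′-biotinylated RNA (UCUGGACUAAA) and 100 nM 3H-SAM. After 30 min, quenched with 15 μM cold SAM; methylated RNA captured on streptavidin flashplates and counted by scintillation.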

PRMT5-MEP50 = PRMT5-MEP50 (Homo sapiens, UniProt O14744); test: PRMT5 assay (3H-SAM flashplate scintillation); assay type: biochemical; details: PRMT5-MEP50 2.5 nM, histone H4 peptide 100 nM, 3H-SAM 250 nM, 60 min
In short: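 PRMT5-MEP50 (2.5 nM final) preincubated 5 min with compound, then reacted 60 min at ambient temperature with 100 nM biotinylated N-acetyl histone H4 peptide and 250 nM 3H-SAM in 20 mM Tris-HCl pH 8.0, 1 mM DTT, 0.01% Tween. Quenched with 15 μM cold SAM; methylated peptide captured on streptavidin flashplates, scintillation counted.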

METTL1/WDR4 = METTL1/WDR4 (Homo sapiens, UniProt Q9UBP6); test: METTL1 assay (3H-SAM flashplate scintillation); assay type: biochemical; details: METTL1/WDR4 6.25 nM, RNA 25 nM, 3H-SAM 60 nM, 20 min; read-out: METTL1 IC50
In short: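 Radiometric methyltransfer by METTL1/WDR4 (6.25 nM f.c., 5 min preincubation) at ambient temperature in HEPES pH 7.5, KCl, MgCl2, DTT; started with 25 nM 3′-biotinylated RNA and 60 nM 3H-SAM, run 20 min, quenched with 15 μM cold SAM. Product captured on streptavidin flashplates (2 h, 25° C), counted by scintillation.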

[1] = system: m^6 A in cellular mRNA of MOLM-13 cells; test: m^6 A-mRNA LC-MS/MS assay (m^6 A cellular assay); assay type: cell-based; details: Homo sapiens, 24 hours incubation, LC-MS/MS of m^6 A/A in mRNA
Procedure: m^6 A-mRNA LC-MS/MS Assay
5×10^6 MOLM-13 (DSMZ) cells were seeded into 10 cm dishes in RPMI 1640 media containing 10% fetal bovine serum and placed in a humidified tissue culture incubator at 37° C. overnight. Compounds were resuspended in 100% DMSO and dosed into each dish at a fixed concentration to comprise an 8-point dose response with a 4-fold serial dilution ranging from 25 μM to 1.5 nM in 0.25% DMSO final and allowed to incubate for 24 hours in a humidified tissue culture incubator at 37° C. Cells were harvested by centrifugation followed by mRNA extraction using DTRECT Dynabeads mRNA DTRECT kit (Life Technologies). mRNA was quantified on NanoDrop spectrophotometer (Thermo Fisher Scientific) and digested into single nucleosides using Nucleoside Digestion Mix (New England Biolabs). Nucleosides are quantified with retention time on a BEH […] column (Waters) and the nucleoside-to-base ion mass transition of 282.1-150.1 (m^6 A) and 268-136 (A) on an API 6500+ triple quadrupole mass spectrometer. Quantification is performed in comparison with the standard curve, obtained from pure nucleoside standards (Selleck Chemicals) running with the same batch of samples. Percentage m^6 A in cellular mRNA is calculated as 100*(m^6 A/A).

MOLM-13 cells = test: MOLM-13 48 Hour cell proliferation assay (Cell Titer-Glo); assay type: cell-based; details: Homo sapiens
Procedure: MOLM-13 48 Hour Cell Proliferation Assay
MOLM-13 (DSMZ) cells were seeded at 1000 cells per well in a volume of 44 μL in a Falcon 384-well tissue culture treated clear bottom microplate in RPMI 1640 media containing 10% fetal bovine serum using a Multidrop Combi (ThermoFisher Scientific). Cells were incubated overnight at 37° C. in a humidified tissue culture incubator. The Mosquito® HTS Liquid Handler was used to make a compound/media intermediate plate by aliquoting […] of compound from the initial compound dilution plate (concentrations ranging from 10.0 mM to 38.0 nM in 100% DMSO) into a V bottom 384-well screen matrix plate containing 49 µL of media containing the appropriate serum (50-fold dilution, 2% DMSO). The Apricot liquid handling system was used to transfer […] compounds from the intermediate plate into the Falcon 384-well tissue culture plate containing 44 μL cells (10-point, 4-fold dilution spanning concentrations 25.0 μM to […], 0.25% DMSO final), and placed in a humidified tissue culture incubator at 37° C. After 48 hours, 25 μL of Cell Titer-Glo reagent (Promega) was added to each well using a Multidrop Combi. The plate was protected from light and placed on an IKA plate shaker for at 300 rpm for 10 minutes at room temperature. The plate was read on an EnVision plate reader (Perkin Elmer) using the Ultra Sensitive Luminescence protocol. Data analysis was performed by normalizing the raw luminescence units to an average of the positive control values for staurosporine (100% cell death) and the negative control values for DMSO (0% cell death). An IC50 was calculated using a 4-parameter logistic nonlinear regression model in GraphPad Prism.

METTL16 = target: T1, METTL16 (Homo sapiens, UniProt Q86W50); test: METTL16 assay (3H-SAM flashplate scintillation); assay type: biochemical; details: METTL16 100 nM, RNA 50 nM, 3H-SAM 200 nM, SAM 800 nM, 20 min
T1 sequence (Q86W50 1-562): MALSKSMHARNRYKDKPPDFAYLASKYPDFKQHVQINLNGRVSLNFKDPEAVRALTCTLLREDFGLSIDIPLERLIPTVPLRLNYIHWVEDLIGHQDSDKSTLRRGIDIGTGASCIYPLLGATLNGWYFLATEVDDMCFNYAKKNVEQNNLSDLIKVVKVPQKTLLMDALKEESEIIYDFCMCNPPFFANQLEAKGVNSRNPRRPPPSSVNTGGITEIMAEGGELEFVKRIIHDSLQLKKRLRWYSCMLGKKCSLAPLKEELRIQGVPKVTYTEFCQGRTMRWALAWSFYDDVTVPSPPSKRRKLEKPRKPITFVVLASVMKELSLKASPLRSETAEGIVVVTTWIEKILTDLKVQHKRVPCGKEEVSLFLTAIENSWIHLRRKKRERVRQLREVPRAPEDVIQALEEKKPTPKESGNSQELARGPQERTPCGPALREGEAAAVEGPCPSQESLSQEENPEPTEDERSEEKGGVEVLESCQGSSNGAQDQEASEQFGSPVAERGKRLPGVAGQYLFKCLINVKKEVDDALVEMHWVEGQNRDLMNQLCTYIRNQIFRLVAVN
In short: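 Radiometric methyltransferase reaction at ambient temperature in 20 mM HEPES pH 7.5, 50 mM KCl, 1 mM DTT, with 100 nM enzyme preincubated 5 min with compound. It was started with 50 nM 3′-biotinylated RNA, 200 nM 3H-SAM plus 800 nM cold SAM, run 20 min, then quenched with excess cold SAM. Product was captured on streptavidin flashplates and scintillation-counted.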

Chain of METTL3/METTL14 (Q86U44 whole entry, species assumed): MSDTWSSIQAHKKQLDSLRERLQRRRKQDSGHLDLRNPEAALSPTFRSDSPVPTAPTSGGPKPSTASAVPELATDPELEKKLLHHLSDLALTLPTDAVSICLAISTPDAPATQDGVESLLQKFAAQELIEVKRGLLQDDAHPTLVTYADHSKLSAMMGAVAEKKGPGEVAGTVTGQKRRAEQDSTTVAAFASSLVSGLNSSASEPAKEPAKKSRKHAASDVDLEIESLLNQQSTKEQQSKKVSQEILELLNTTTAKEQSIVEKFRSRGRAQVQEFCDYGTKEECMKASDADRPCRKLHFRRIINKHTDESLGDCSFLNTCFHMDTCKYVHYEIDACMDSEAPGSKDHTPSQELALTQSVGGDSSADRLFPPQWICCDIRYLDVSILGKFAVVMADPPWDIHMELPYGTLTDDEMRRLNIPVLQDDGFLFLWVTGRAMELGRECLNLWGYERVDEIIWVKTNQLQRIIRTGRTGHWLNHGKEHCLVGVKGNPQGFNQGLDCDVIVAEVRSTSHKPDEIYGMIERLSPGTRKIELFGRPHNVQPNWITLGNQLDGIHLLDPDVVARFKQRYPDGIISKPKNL
Chain of METTL3/METTL14 (Q9HCE5 whole entry partner, species assumed): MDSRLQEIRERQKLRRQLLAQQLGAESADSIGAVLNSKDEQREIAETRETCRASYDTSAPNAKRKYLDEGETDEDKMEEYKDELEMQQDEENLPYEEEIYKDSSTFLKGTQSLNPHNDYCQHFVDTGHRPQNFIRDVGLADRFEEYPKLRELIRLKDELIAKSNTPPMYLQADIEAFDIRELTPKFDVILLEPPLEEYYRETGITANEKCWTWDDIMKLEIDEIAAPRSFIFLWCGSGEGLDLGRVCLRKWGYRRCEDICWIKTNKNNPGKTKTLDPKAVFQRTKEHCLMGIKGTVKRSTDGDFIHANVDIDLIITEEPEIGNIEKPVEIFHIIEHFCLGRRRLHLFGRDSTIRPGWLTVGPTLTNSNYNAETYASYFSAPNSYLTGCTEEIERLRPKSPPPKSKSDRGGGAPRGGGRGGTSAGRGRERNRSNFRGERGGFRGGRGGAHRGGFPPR
Chain of PRMT5-MEP50 (O14744 whole entry): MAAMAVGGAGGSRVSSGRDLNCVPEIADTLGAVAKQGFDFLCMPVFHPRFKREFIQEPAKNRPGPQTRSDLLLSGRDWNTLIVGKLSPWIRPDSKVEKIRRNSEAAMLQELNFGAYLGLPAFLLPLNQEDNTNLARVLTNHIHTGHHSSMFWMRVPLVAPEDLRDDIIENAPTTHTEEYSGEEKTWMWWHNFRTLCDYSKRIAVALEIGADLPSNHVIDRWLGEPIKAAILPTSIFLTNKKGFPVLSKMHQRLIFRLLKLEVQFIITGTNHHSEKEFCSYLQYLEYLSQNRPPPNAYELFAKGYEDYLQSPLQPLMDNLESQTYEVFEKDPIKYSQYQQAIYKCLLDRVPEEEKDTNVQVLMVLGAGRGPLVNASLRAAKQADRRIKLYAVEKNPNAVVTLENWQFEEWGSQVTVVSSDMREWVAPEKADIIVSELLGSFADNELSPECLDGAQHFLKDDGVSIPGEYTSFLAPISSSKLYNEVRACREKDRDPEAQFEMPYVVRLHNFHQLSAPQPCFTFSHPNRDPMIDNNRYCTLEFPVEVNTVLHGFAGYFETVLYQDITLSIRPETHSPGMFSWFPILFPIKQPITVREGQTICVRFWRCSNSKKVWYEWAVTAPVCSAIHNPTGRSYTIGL
Chain of PRMT5-MEP50 (Q9BQA1 whole entry partner): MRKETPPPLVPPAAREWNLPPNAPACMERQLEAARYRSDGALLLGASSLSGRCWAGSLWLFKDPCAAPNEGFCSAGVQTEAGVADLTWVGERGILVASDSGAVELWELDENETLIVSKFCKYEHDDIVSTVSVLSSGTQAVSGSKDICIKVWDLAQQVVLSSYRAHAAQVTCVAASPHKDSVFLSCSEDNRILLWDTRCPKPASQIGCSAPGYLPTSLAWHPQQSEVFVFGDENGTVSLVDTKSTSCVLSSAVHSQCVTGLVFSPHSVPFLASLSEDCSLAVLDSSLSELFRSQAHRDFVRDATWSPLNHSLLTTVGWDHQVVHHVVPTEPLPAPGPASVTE
Chain of METTL1/WDR4 (Q9UBP6 whole entry, species assumed): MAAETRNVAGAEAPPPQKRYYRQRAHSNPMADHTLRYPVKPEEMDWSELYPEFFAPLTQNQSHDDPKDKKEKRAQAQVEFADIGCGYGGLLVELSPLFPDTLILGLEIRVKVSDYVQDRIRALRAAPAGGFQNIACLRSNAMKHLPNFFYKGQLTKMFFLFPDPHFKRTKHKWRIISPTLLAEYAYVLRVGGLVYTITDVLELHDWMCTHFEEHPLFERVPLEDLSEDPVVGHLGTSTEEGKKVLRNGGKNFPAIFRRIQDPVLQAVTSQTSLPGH
Chain of METTL1/WDR4 (P57081 whole entry partner, species assumed): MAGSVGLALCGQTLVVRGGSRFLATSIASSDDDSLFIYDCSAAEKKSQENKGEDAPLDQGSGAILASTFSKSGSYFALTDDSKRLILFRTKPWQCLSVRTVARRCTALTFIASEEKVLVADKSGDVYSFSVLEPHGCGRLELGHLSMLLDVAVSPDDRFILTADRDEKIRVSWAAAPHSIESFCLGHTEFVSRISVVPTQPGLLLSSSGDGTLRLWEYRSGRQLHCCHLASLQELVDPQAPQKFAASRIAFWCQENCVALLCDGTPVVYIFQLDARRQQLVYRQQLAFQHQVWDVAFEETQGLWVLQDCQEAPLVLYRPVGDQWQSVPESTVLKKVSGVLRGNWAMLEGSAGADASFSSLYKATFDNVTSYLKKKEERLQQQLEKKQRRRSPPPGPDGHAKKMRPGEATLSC

SMILES | IC50 (METTL3/METTL14) | IC50 (PRMT5-MEP50) | IC50 (METTL1/WDR4) | IC50 [1] | IC50 (MOLM-13 cells) | IC50 (METTL16)
CNc1ccc2ccc(OCc3cncc(-c4cn(C5CCCC5)c5c(N)ncnc45)c3)cc2n1 [Compound I-18] | < 10 nM | > 1000 nM | > 1000 nM | 1000 to 10000 nM | 1000 to 10000 nM | 
CNc1ccc2ccc(OCc3cncc(-c4c(C)[nH]c5c(N)ncnc45)c3)cc2n1 [Compound I-25] | < 10 nM | > 1000 nM |  | ≥ 10000 nM | ≥ 10000 nM | > 1000 nM
CCc1cc(N)c2ccc(OCc3cncc(-n4ccc5c(N)ncnc54)c3)cc2n1 [Compound I-45] | < 10 nM | > 1000 nM |  | ≥ 10000 nM | ≥ 10000 nM | > 1000 nM
CNc1ccc2ccc(OCc3cncc(-c4c[nH]c5c(N)ncnc45)c3)cc2n1 [Compound I-47, 7-[(5-{4-amino-5H-pyrrolo[3,2-d]pyrimidin-7-yl}pyridin-3-yl)methoxy]-N-methylquinolin-2-amine] | < 10 nM | > 1000 nM |  | ≥ 10000 nM | ≥ 10000 nM | > 1000 nM
CCNc1ccc2ccc(OCc3cncc(-n4cc(Cl)c5c(N)ncnc54)c3)cc2n1 [Compound I-59] | < 10 nM | > 1000 nM |  | 1000 to 10000 nM | 1000 to 10000 nM | > 1000 nM
CNc1ccc2ccc(OCc3cncc(-n4ccc5c(N)ncnc54)c3)cc2n1 [Compound I-60] | < 10 nM | > 1000 nM |  | 1000 to 10000 nM | < 1000 nM | > 1000 nM
